Assays:
[1] = Plasma levels of PFOA after 11 days oral dosing in SD rats (LC/MS/MS); format: in vivo, rat; conditions: 25 mg/kg oral daily for 11 days, 24 hours after final administration
Protocol: The study consisted of one control group of 8 male CD Sprague Dawley rats (8-10-weeks old; obtained from Harlan, UK) and 4 test groups that contained 4 rats. Animals received powdered RM1 diet ad libitum for the duration of the study. […] All chemicals were dissolved in Mazola corn oil (at 2.5 mg/ml) and test compounds were administered at 10 ml/kg bodyweight. Control animal received Mazola corn oil only. All animals were sacrificed after 11 days. Animals were killed by exposure to rising concentrations of CO2, and blood was harvested into lithium/heparin tubes for plasma.
Rat plasma samples were denatured by adding acetonitrile, and the amount of perfluorooctanoic acid (PFOA) present was determined by LC/MS/MS.

[2] = biological target: T1, PPAR delta (Homo sapiens, UniProt Q03181); experiment: PPAR delta transactivation assay in COS-1 cells; format: cell-based; set-up: Fold activation of PPAR delta: dose or concentration left out as unconfirmed; conditions: for Fold activation of PPAR delta: mean±SD n=3; for Inhibition of activation of PPAR delta (by a factor of): transactivation assay
T1 construct: 25 ng of vector DNA carrying PPAR alpha, delta or gamma; expressed in transfected cells; host or cells: COS-1 (African green monkey kidney cells)
T1 sequence (Q03181 1-441): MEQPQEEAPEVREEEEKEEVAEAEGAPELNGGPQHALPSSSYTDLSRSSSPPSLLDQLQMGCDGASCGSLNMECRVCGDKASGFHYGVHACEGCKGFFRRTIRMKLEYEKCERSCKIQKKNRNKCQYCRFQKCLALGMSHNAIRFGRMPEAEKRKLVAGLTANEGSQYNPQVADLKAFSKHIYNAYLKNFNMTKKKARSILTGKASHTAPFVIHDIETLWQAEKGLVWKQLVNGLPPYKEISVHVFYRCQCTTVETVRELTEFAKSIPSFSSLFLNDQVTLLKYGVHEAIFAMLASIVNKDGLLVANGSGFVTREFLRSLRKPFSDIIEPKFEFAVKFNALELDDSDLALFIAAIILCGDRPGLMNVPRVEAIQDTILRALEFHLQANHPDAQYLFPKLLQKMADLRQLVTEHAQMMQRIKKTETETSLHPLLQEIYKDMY

[3] = 7-day oral gavage study, metabolic parameters, body weight and food consumption in CR SD rats; format: in vivo, rat; conditions: for Cholesterol (plasma) / Glucose (plasma) / Insulin (plasma) / Triglycerides (plasma): n=5; for Weight loss: 7 days; for Plasma glucose, % of control values: dose not stated
Protocol: Two groups (n=5) of CR SD rats (approximately 300 g) were treated with 2 dose levels of perfluorinated compounds (15 and 25 mg/kg/day body weight). Animals were administered test substances, dissolved in corn oil, by oral gavage, daily for 7 days. One group of 20 CR SD rays was also treated with vehicle (corn oil) alone. Body weight and food consumption were monitored daily.
Twenty-four hours after the last dose the animals were killed by an increasing concentration of carbon dioxide. Blood was collected by cardiac puncture and plasma was prepared and stored at −70° C. until analysed.
Plasma was analysed for triglycerides, cholesterol, and glucose, using kits purchased from Sigma. Concentrations of plasma insulin were determined using a commercially available enzyme-immunoassay-based kit from Amersham Biosciences. All assays were carried out as specified by the manufacturer.

[4] = tested on: HT-29 cells (human colon tumour-derived); experiment: SRB growth inhibition assay, HT-29 cells; format: cell-based; conditions: 48 hours exposure
Protocol: (§1) The effect of perfluorinated compounds on the inhibition of tumour cell growth was assessed iii vitro using three human tumour-derived cell lines. Cancer cell lines were tested using the sulphorhodamine B (SRB) assay (which measures cellular protein and is directly related to cell number), which is utilised by the […] to screen anti-cancer agents.
(§2) HT-29 cells (human colon tumour-derived), MCF7 cells (human breast cancer-derived) and PC3 cells (human prostate cancer-derived) were harvested and diluted (to 5×10^4 cells per ml, 1×10^5 cells per ml and 7.5×10^4 cells per ml respectively) in RPMI 1640 medium containing 5% FBS, 2 mM glutamine and. 50 μg/ml gentamicin. 100 μl of cell suspension per well was added to 96 well plates and allowed to attach overnight. Cells were exposed to test compounds dissolved in DMSO in 100 μl of medium to give final drug concentrations of 0, 0.3, 1, 3, 10, 30, 100, 300, 1000 and 3000 μM (and DMSO at 0.25%). (n=6 for each drug concentration). After 48 hours, cells were fixed in 10% trichloroacetic acid (TCA) at 4° C. for 1-2 hours then washed using water and subsequently air-dried. 100 μl SRB solution (0.4%) in 1% Acetic Acid was added to each well, and plates were incubated at room temperature for 10 minutes. Unbound dye was removed by washing with 1% acetic acid. Plates were air-dried and bound stain was solubilised in 10 mM Tris base and the absorbance read at 520 nm.

[5] = tested on: MCF7 cells (human breast cancer-derived); experiment: SRB growth inhibition assay, MCF7 cells; format: cell-based; conditions: 48 hours exposure
Protocol: as §1, §2

[6] = biological target: T2, human PPAR-alpha ligand binding domain (Homo sapiens, UniProt Q07869); experiment: PPAR alpha ligand binding (displacement of DAUDA); conditions: for Kd: PPAR Receptor Binding Kd Alpha (apparent Kd), DAUDA displacement
T2 sequence (Q07869 179-468): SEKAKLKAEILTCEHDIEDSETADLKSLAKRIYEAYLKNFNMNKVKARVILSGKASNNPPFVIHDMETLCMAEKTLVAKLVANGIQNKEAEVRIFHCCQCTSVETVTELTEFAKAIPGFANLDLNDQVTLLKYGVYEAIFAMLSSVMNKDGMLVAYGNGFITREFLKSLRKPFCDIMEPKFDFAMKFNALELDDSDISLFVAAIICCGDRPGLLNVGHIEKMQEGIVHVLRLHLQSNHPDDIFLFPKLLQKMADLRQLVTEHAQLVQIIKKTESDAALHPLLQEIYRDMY

[7] = tested on: PC3 cells (human prostate cancer-derived); experiment: SRB growth inhibition assay, PC3 cells; format: cell-based
Protocol: as §1, §2

[8] = tested on: three human tumour-derived cell lines (HT-29, MCF7, PC3); experiment: SRB growth inhibition, summary over the three human tumour cell lines; format: cell-based; conditions: Homo sapiens; over HT-29, MCF7 and PC3
Protocol: as §1, §2

[9] = biological target: T3, human PPAR-gamma ligand binding domain (Homo sapiens, UniProt P37231); experiment: PPAR gamma ligand binding (displacement of cis-parinaric acid)
T3 sequence (P37231 202-505): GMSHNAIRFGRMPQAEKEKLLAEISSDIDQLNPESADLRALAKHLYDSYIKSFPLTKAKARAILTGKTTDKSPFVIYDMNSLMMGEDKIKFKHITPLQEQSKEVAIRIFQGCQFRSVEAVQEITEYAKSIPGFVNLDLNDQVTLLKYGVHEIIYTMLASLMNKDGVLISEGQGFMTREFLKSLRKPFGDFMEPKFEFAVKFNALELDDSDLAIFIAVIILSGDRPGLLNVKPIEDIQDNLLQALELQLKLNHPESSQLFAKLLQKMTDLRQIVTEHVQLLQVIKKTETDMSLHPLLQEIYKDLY

[10] = 15 mg/kg/day oral gavage 7 days
[11] = 25 mg/kg/day oral gavage 7 days
[12] = 15 and 25 mg/kg/day, versus control
[13] = Homo sapiens, PC-3, 48 hours exposure

Structure (SMILES) | Fold activation of PPAR delta [2] | Cholesterol (plasma) [3, 10] | Glucose (plasma) [3, 10] | Insulin (plasma) [3, 10] | Triglycerides (plasma) [3, 10] | Plasma insulin, % of control values ([3]; 25 mg/kg) | Cholesterol (plasma) [3, 11] | Glucose (plasma) [3, 11] | Insulin (plasma) [3, 11] | Triglycerides (plasma) [3, 11] | Inhibition of activation of PPAR delta (by a factor of) [2] | Plasma insulin, % of control values ([3]; 15 mg/kg) | Weight loss ([3]; 15 mg/kg) | Plasma cholesterol, % of control values ([3]; 25 mg/kg) | Plasma triglycerides, % of control values ([3]; 25 mg/kg) | Food consumption [3, 12] | Plasma glucose, % of control values [3] | Kd [6] | IC50 [8] | IC50 ([4]; Homo sapiens, HT-29, 48 h) | further results
CCOC(=O)C(F)(F)C(F)(F)C(F)(F)C(F)(F)C(F)(F)C(F)(F)C(F)(F)F [EPOA, Ethylperfluorooctanoate] |  |  |  |  |  |  |  |  |  |  |  |  |  |  |  |  |  |  |  |  | Plasma concentration of PFOA (free acid) [1]: equimolar concentrations of PFOA
CCCCC[C@H](O)/C=C/[C@@H]1[C@H]2C/C(=C/CCCC(=O)O)C[C@H]2C[C@H]1O [carbaprostacyclin, reference compound] | 2.17 ± 0.42 fold |  |  |  |  |  |  |  |  |  |  |  |  |  |  |  |  |  |  |  | 
FC(F)(F)C(F)(F)C(F)(F)C(F)(F)C(F)(F)C(F)(F)C(F)(F)C(F)(F)F [PFO, Perfluorooctane] |  | 1.99 ± 0.46 mmol/L | 18.41 ± 1.41 mmol/L | 99.58 ± 126.1 ng/mL | 1.03 ± 0.35 mmol/L | 33.5% | 1.70 ± 0.11 mmol/L | 17.13 ± 2.37 mmol/L | 61.81 ± 45.81 ng/mL | 2.09 ± 2.33 mmol/L |  |  |  |  |  |  |  |  |  |  | Plasma glucose raised by ([3]; 25 mg/kg): 3%
O=C(O)C(F)(F)C(F)(F)C(F)(F)C(F)(F)C(F)(F)C(F)(F)C(F)(F)F [PFOA, Perfluorooctanoic acid] |  | 1.01 ± 0.086 mmol/L | 10.30 ± 1.23 mmol/L | 5.51 ± 8.88 ng/mL | 0.37 ± 0.04 mmol/L | 30.74% | 0.98 ± 0.35 mmol/L | 10.01 ± 3.90 mmol/L | 56.76 ± 46.5 ng/mL | 0.3 ± 0.13 mmol/L | 4 | 2.98% | 9.4% | 49.2% | 16.8% | dose-related, decreases in food consumption | 60% | 6 µM |  |  | IC50 [4]: 398 µM; IC50 [5]: 244 µM; Bodyweight lost ([3]; 25 mg/kg, after day 6, terminated early): 11.7%; IC50 ([7]; 48 hours exposure): 215 µM
O=C(O)C(F)(F)C(F)(F)C(F)(F)C(F)(F)C(F)(F)C(F)(F)C(=O)O [PFSA, Perfluorosuberic acid (C8)] | 0.62 ± 0.31 fold | 1.76 ± 0.15 mmol/L | 16.41 ± 2.09 mmol/L | 52.96 ± 26.55 ng/mL | 0.95 ± 0.42 mmol/L |  | 1.92 ± 0.36 mmol/L | 15.9 ± 1.43 mmol/L | 109 ± 103.2 ng/mL | 1.22 ± 0.56 mmol/L | 1.6 | 28.7% |  |  |  |  |  | 44 µM | ~3000 µM | > 3000 µM | IC50 ([5]; Homo sapiens, MCF7, 48 h): > 3000 µM; Reduction in binding affinity for PPAR alpha compared to PFOA [6]: 7 fold; IC50 [7, 13]: > 3000 µM; Kd [9]: 13 µM; Reduction in binding affinity for PPAR gamma compared to PFOA [9]: ~40 fold
N.O=C(O)C(F)(F)C(F)(F)C(F)(F)C(F)(F)C(F)(F)C(F)(F)C(F)(F)F [APFO, Ammonium perfluorooctanoate] |  | 1.00 ± 0.36 mmol/L | 13.12 ± 0.74 mmol/L | 25.02 ± 20.27 ng/mL | 0.25 ± 0.07 mmol/L | 8.3% |  | 11.99 ± 1.87 mmol/L | 15.29 ± 9.72 ng/mL | 0.34 ± 0.09 mmol/L |  | 13.5% | 1% | 56.2% | 19.1% | dose-related, decreases in food consumption | 72.6% | 8 µM | 200 to 600 µM | 293 µM | IC50 ([5]; Homo sapiens, MCF7, 48 h): 211 µM; Food consumption ([3]; 15 mg/kg): did not decrease further after day 6; Weight loss ([3]; 25 mg/kg (higher dose)): 11%; Bodyweight change ([3]; 15 and 25 mg/kg/day, continued till end of treatment): lost bodyweight after day 3; IC50 [7, 13]: 215 µM

Reference: patent US20060052451A1, “Method” (priority 2002, published 2006)
